Assay results as given in article PMC7614775 (Nature chemical biology, 2022).
Like-named read-outs stand apart in the source and are kept apart here.

Key:
[1] = biological target: C816 of mouse JAK1 (Mus musculus, UniProt P52332); experiment: Cysteine MS-ABPP in mouse splenocyte lysates; assay type: binding; settings: 0.01 µM, 1 h
[2] = tested on: IL-6-stimulated STAT3 phosphorylation; experiment: Phospho-STAT western blot in 22Rv1 cells expressing JAK1 variants; assay type: cell-based, human
[3] = biological target: TYK2 phosphorylation (pTYK2) (Homo sapiens, UniProt P29597); experiment: TYK2 phosphorylation western blot in 22Rv1 cells expressing TYK2 variants; assay type: cell-based; settings: WT-TYK2
TYK2 phosphorylation (pTYK2), sequence (P29597 whole entry): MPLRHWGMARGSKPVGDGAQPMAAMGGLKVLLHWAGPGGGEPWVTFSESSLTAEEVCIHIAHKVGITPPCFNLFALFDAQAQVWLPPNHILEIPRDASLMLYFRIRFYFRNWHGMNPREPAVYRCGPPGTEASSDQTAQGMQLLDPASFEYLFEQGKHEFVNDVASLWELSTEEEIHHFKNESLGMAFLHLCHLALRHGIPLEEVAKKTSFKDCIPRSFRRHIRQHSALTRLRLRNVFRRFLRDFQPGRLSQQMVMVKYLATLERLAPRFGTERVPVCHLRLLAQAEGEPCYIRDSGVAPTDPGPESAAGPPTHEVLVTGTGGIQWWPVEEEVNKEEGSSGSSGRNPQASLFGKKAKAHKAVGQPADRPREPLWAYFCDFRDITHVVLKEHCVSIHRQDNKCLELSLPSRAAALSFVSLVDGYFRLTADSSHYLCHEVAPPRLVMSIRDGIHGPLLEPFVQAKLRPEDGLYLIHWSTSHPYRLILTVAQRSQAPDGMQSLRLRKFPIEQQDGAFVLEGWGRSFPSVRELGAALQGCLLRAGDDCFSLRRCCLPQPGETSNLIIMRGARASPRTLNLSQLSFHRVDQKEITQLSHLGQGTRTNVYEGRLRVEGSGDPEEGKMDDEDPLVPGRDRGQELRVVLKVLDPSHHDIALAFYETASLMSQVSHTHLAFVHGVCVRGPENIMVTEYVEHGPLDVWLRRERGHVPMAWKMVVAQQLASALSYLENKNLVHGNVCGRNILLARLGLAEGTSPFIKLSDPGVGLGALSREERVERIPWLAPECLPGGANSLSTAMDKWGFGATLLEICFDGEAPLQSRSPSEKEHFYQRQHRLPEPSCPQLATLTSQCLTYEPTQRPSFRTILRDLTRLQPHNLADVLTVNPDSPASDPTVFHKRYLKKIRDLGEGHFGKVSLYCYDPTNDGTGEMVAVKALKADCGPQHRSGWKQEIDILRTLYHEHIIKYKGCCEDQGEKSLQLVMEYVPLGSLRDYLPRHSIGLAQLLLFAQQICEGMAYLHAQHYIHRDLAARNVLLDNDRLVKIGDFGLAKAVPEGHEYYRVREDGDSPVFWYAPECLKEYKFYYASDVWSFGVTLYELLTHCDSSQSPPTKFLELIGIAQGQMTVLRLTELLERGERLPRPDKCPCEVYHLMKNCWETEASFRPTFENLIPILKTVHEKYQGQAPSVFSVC

[4] = biological target: T1, TYK2_C838 (Homo sapiens, UniProt P29597); experiment: Untargeted cysteine MS-ABPP, human PBMC lysates treated in vitro; assay type: binding; settings: PBMC lysate in vitro, 1 h
T1 sequence (P29597 whole entry): as above

[5] = biological target: T2, JAK1_C817 (Homo sapiens, UniProt P23458); experiment: Untargeted cysteine MS-ABPP, human PBMCs treated in situ; assay type: binding
T2 sequence (P23458 whole entry): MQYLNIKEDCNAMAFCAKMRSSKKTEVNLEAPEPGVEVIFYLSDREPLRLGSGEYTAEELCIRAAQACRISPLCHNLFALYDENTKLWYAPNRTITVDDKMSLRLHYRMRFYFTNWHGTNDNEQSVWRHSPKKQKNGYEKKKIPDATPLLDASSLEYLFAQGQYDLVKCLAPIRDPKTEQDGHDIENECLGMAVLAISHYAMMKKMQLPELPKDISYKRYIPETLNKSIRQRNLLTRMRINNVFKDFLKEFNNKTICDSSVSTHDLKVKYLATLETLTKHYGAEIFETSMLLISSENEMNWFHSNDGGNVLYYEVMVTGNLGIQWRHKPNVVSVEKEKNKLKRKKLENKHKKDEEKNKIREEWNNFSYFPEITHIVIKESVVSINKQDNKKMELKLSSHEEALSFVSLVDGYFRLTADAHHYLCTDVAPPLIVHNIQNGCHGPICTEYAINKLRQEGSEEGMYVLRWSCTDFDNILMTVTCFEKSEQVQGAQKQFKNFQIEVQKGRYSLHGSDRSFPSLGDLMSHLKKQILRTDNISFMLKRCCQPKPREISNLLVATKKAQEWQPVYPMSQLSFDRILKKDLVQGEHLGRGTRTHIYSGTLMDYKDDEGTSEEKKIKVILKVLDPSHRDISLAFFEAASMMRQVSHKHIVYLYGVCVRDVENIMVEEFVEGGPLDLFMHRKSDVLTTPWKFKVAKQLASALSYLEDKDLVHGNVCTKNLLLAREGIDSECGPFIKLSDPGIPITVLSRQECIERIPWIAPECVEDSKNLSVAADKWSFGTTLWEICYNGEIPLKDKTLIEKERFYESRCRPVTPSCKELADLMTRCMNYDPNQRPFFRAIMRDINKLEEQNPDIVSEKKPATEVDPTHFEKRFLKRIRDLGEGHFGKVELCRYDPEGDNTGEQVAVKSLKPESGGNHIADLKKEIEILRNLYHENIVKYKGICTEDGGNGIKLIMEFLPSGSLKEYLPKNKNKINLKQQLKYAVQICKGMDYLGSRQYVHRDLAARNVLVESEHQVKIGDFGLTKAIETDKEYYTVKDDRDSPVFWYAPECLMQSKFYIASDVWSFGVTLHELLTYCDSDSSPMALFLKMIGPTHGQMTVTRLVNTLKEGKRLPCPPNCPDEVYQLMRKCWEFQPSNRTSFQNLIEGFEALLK

[6] = biological target: T3, HMOX2_C282 (Homo sapiens, UniProt P30519); experiment: as above; assay type: binding
T3 sequence (P30519 1-316): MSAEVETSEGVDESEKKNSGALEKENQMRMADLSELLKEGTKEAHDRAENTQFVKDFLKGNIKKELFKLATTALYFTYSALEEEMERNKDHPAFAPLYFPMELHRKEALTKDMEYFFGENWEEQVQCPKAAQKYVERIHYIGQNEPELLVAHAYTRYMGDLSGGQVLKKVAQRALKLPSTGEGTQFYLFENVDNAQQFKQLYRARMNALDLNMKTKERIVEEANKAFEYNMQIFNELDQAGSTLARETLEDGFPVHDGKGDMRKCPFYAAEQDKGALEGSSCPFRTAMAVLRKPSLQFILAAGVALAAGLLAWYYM

[7] = tested on: IFNγ-stimulated STAT1 phosphorylation; experiment: Phospho-STAT western blot in 22Rv1 cells expressing JAK1 variants; assay type: cell-based, human
[8] = tested on: IL-2-stimulated STAT5 phosphorylation; experiment: Phospho-STAT western blot in human PBMCs; assay type: cell-based; settings: 0.1–1 µM
[9] = biological target: T4, TOR4A_C21 (Homo sapiens, UniProt Q9NXH8); experiment: Untargeted cysteine MS-ABPP, human PBMCs treated in situ; assay type: binding
T4 sequence (Q9NXH8 whole entry): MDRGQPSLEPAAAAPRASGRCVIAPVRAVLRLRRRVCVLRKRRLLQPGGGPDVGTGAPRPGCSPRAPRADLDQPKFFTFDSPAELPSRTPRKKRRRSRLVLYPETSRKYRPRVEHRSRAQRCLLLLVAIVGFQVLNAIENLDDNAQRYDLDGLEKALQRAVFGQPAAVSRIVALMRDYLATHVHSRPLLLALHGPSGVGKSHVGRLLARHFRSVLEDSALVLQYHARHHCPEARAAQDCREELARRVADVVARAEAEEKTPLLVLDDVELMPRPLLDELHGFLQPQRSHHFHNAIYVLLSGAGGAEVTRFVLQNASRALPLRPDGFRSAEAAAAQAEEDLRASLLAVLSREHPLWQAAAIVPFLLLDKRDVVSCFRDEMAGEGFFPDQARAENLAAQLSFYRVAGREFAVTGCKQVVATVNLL

[10] = tested on: IFNα-stimulated STAT1 phosphorylation; experiment: Phospho-STAT western blot in 22Rv1 cells expressing JAK1 variants; assay type: cell-based, human
[11] = biological target: T4, TOR4A_C21; experiment: Untargeted cysteine MS-ABPP, human PBMC lysates treated in vitro; assay type: binding; settings: PBMC lysate in vitro, 1 h
[12] = tested on: IFNα-stimulated STAT1 phosphorylation; experiment: HTRF phospho-STAT1 assay in human PBMCs; assay type: cell-based; settings: read-out: IC50, IFNα-stimulated STAT1 phosphorylation (HTRF)
[13] = tested on: IFNα-stimulated human PBMCs; experiment: Multiplex immunoassay of cytokines/chemokines; assay type: cell-based; settings: compound 2 h, then IFNα 100 ng/mL, 16 h
[14] = tested on: IL-2-dependent STAT5 phosphorylation; experiment: Phospho-STAT western blot in mouse splenocytes; assay type: cell-based; settings: 0.01–0.1 µM
[15] = biological target: JAK1 trans-phosphorylation (Homo sapiens, UniProt P23458); experiment: Trans-phosphorylation assay in 22Rv1 cells; assay type: cell-based; settings: cells expressing active WT-JAK1-FLAG; 2 µM, 2 h
JAK1 trans-phosphorylation, sequence (P23458 whole entry): as the sequence (P23458 whole entry) above

[16] = biological target: T2, JAK1_C817; experiment: Targeted MS-ABPP target engagement (TE50) in human cell lysates; assay type: binding
[17] = tested on: IFNα-stimulated human PBMCs; experiment: Real-Time PCR of interferon-stimulated genes; assay type: cell-based; settings: compound 2 h, then IFNα 16 h
[18] = biological target: JAK1 phosphorylation (pJAK1; Y1034/Y1035) (Homo sapiens, UniProt P23458, C817A); experiment: JAK1 phosphorylation western blot in 22Rv1 cells expressing JAK1 variants; assay type: cell-based; settings: C817A-JAK1; 2 µM, 2 h
JAK1 phosphorylation (pJAK1; Y1034/Y1035) (Homo sapiens, UniProt P23458, C817A), sequence (P23458 whole entry C817A): as the sequence (P23458 whole entry) above, with C817A counted along it

[19] = biological target: JAK1 phosphorylation (pJAK1; Y1034/Y1035) (Homo sapiens, UniProt P23458); experiment: as above; assay type: cell-based; settings: WT- and C810A-JAK1
JAK1 phosphorylation (pJAK1; Y1034/Y1035) (Homo sapiens, UniProt P23458), sequence (P23458 whole entry, the tested form may be a part): as the sequence (P23458 whole entry) above

[20] = biological target: recombinant purified JAK1 (aa 438 – 1154) (Homo sapiens, UniProt P23458); experiment: In vitro kinase (peptide substrate, ADP-Glo) assay; assay type: biochemical
recombinant purified JAK1 (aa 438 – 1154), sequence (P23458 438-1154): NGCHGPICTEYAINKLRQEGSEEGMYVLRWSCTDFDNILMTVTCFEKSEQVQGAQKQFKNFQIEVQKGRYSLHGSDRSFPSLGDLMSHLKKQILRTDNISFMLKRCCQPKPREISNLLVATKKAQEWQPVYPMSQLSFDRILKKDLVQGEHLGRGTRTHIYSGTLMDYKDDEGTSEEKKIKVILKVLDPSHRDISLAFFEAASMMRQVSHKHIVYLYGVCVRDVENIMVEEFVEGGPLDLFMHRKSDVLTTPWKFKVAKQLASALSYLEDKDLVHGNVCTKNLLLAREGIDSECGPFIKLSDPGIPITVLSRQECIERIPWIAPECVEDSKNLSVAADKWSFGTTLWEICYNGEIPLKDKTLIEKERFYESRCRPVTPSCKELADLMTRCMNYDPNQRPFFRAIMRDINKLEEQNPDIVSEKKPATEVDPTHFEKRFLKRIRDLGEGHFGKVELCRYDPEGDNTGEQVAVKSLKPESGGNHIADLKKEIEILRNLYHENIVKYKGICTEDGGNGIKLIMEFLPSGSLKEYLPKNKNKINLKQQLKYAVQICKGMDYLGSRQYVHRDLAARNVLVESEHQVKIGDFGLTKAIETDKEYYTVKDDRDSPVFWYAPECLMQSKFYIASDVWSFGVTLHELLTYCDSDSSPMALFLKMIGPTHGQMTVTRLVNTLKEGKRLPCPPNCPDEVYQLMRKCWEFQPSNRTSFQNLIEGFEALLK

[21] = tested on: IL-12-STAT4 signaling; experiment: Phospho-STAT western blot in mouse splenocytes; assay type: cell-based
[22] = biological target: recombinant TYK2 (WT, C838A) (Homo sapiens, UniProt P29597); experiment: Gel-based ABPP in 22Rv1 cells; assay type: binding; settings: pre-treatment 0.01–1 μM, 2 h, in situ
recombinant TYK2 (WT, C838A), sequence (P29597 whole entry C838A): as the sequence (P29597 whole entry) above, with C838A counted along it

[23] = tested on: GM-CSF-STAT5 signaling; experiment: Phospho-STAT western blot in mouse splenocytes; assay type: cell-based
[24] = biological target: T1, TYK2_C838; experiment: Untargeted cysteine MS-ABPP, human PBMCs treated in situ; assay type: binding
[25] = C817A-JAK1-expressing 22Rv1 cells, up to 2 µM
[26] = WT- or C810A-JAK1-expressing 22Rv1 cells, 2 µM, 2 h
[27] = WT- or C810A-JAK1-expressing 22Rv1 cells, at ~0.2 µM

C816 of mouse JAK1, sequence (P52332 whole entry): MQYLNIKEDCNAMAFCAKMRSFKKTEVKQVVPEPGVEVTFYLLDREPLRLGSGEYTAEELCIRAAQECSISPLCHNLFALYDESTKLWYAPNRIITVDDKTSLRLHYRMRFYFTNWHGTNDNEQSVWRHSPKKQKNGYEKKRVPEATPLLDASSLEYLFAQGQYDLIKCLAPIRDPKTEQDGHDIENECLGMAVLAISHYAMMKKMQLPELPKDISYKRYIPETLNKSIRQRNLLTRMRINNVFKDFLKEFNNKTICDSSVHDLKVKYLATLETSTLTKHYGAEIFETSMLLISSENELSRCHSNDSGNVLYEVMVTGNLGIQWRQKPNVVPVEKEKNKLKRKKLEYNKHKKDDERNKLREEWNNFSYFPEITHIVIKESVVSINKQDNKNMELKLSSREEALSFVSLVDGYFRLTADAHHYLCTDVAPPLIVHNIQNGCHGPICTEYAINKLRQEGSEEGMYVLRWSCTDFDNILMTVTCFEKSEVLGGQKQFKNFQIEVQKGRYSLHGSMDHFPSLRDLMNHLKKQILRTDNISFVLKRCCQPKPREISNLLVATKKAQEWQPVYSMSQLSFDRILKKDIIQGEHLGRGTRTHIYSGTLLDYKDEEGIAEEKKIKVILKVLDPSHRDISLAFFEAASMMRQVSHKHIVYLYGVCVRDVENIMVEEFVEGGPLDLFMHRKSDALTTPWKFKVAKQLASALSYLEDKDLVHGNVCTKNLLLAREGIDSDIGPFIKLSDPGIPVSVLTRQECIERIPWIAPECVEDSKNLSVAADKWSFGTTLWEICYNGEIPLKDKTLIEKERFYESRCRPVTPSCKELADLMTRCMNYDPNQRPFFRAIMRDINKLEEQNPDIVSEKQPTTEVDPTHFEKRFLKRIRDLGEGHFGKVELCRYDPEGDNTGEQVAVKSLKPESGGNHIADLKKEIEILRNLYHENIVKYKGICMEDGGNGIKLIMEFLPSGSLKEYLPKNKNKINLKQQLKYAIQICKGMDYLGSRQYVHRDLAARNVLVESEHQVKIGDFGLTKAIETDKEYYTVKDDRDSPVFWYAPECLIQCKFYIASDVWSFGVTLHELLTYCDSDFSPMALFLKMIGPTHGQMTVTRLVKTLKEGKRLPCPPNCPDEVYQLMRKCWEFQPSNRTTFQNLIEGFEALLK

With `CS(=O)(=O)N1CC[C@H](C#CC(=O)N2CCC[C@@H](c3ccc(Cl)c(Cl)c3)C2)C1` [VVD-118313] as the molecule, how does the “engagement of mouse JAK1 C816 (% inhibition)” value [1] read?
Its value is > 90%.

What about the “inhibition of IL-6-STAT3 phosphorylation” value [2, 25] of the same molecule?
Its value is < 10%.

And the “effect on IL-6-stimulated pSTAT3” value [2, 26]?
The value was “blocked”.

And the “maximal inhibition of IL-6-STAT3 phosphorylation” value [2, 27]?
The value was > 80%.

And the “effect on phosphorylation of the TYK2 activation loop” value [3]?
The value was “inhibited”.

What about the “Engagement Ratio (DMSO/VVD-118313)” value ([4]; 0.01 µM) of the same molecule?
The value was 0.9.

And the “%Engagement” value ([4]; 0.1 µM)?
The value was 32%.

What about the “Engagement Ratio (DMSO/VVD-118313)” value ([4]; 0.1 µM) of the same molecule?
Its value is 1.5.

What about the “%Engagement” value ([4]; 1 µM) of the same molecule?
Its value is 83%.

What about the “Engagement Ratio (DMSO/VVD-118313)” value ([4]; 1 µM) of the same molecule?
Its value is 5.9.

What about the “%Engagement” value ([4]; 10 µM) of the same molecule?
The value was 96%.

And the “Engagement Ratio (DMSO/VVD-118313)” value ([4]; 10 µM)?
Its value is 20.0.

And the “%Engagement” value ([5]; 0.01 µM)?
Its value is 84%.

What about the “Engagement Ratio (DMSO/VVD-118313)” value ([5]; 0.01 µM) of the same molecule?
Its value is 6.3.

And the “Engagement Ratio (DMSO/VVD-118313)” value ([5]; 0.1 µM)?
Its value is 20.0.

And the “%Engagement” value ([5]; 1 µM)?
The value was 96%.

And the “Engagement Ratio (DMSO/VVD-118313)” value ([5]; 1 µM)?
The value was 20.0.

What about the “%Engagement” value ([5]; 10 µM) of the same molecule?
Its value is 97%.

What about the “Engagement Ratio (DMSO/VVD-118313)” value ([5]; 10 µM) of the same molecule?
The value was 20.0.

What about the “Engagement Ratio (DMSO/VVD-118313)” value ([6]; 0.01 µM) of the same molecule?
Its value is 1.0.

And the “%Engagement” value ([6]; 0.1 µM)?
Its value is 27%.

What about the “Engagement Ratio (DMSO/VVD-118313)” value ([6]; 0.1 µM) of the same molecule?
The value was 1.4.

What about the “%Engagement” value ([6]; 1 µM) of the same molecule?
Its value is “engaged”.

And the “Engagement Ratio (DMSO/VVD-118313)” value ([6]; 1 µM)?
The value was 12.5.

What about the “%Engagement” value ([6]; 10 µM) of the same molecule?
The value was 98%.

And the “Engagement Ratio (DMSO/VVD-118313)” value ([6]; 10 µM)?
Its value is 20.0.

What about the “blockade of IFNγ-stimulated STAT1 phosphorylation” value ([7]; K908E-JAK1-expressing 22Rv1 cells) of the same molecule?
Its value is ~ 40%.

And the “blockade of IFNγ-stimulated STAT1 phosphorylation” value ([7]; K908E/C817A-JAK1-expressing 22Rv1 cells)?
Its value is “not observed”.

And the “effect on IFNγ-stimulated STAT1 phosphorylation” value ([7]; WT-JAK1 transfected 22Rv1 cells, 1 μM, 2 h)?
Its value is “Neither VVD-118313 nor the TYK2 inhibitor BMS-986165 altered”.

What about the “inhibition of IL-2-stimulated STAT5 phosphorylation” value [8] of the same molecule?
The value was ~ 70%.

What about the “Engagement Ratio (DMSO/VVD-118313)” value ([9]; 0.01 µM) of the same molecule?
Its value is 0.9.

What about the “Engagement Ratio (DMSO/VVD-118313)” value ([9]; 0.1 µM) of the same molecule?
Its value is 1.0.

And the “%Engagement” value ([9]; 1 µM)?
Its value is 65%.

What about the “Engagement Ratio (DMSO/VVD-118313)” value ([9]; 1 µM) of the same molecule?
Its value is 2.9.

What about the “%Engagement” value ([9]; 10 µM) of the same molecule?
The value was 92%.

And the “Engagement Ratio (DMSO/VVD-118313)” value ([9]; 10 µM)?
Its value is 11.8.

What about the “inhibition of IFNα-STAT1 phosphorylation” value [10, 25] of the same molecule?
The value was < 10%.

What about the “effect on IFNα-stimulated pSTAT1” value [10, 26] of the same molecule?
The value was “blocked”.

And the “maximal inhibition of IFNα-STAT1 phosphorylation” value [10, 27]?
The value was > 80%.

And the “%Engagement” value ([11]; 0.01 µM)?
The value was 9%.

What about the “Engagement Ratio (DMSO/VVD-118313)” value ([11]; 0.01 µM) of the same molecule?
The value was 1.1.

And the “%Engagement” value ([11]; 0.1 µM)?
The value was 49%.

And the “Engagement Ratio (DMSO/VVD-118313)” value ([11]; 0.1 µM)?
Its value is 1.9.

And the “%Engagement” value ([11]; 1 µM)?
Its value is 90%.

And the “Engagement Ratio (DMSO/VVD-118313)” value ([11]; 1 µM)?
The value was 10.0.

What about the “%Engagement” value ([11]; 10 µM) of the same molecule?
The value was 97%.

What about the “Engagement Ratio (DMSO/VVD-118313)” value ([11]; 10 µM) of the same molecule?
Its value is 20.0.

And the IC50 ([12]; media supplemented with 10% fetal bovine serum (FBS))?
The IC50 was 46 nM.

What about the IC50 ([12]; serum-free media) of the same molecule?
The IC50 was 32 nM.

What about the “induction of pro-inflammatory chemokines (CCL2/MCP-1, CXCL10/IP-10, CCL4/MIP-1β)” value [13] of the same molecule?
The value was “near-completely suppressed”.

What about the “effect on IL-2-dependent STAT5 phosphorylation” value [14] of the same molecule?
Its value is “inhibited”.

And the “effect on trans-phosphorylation of inactive JAK1-HA variants” value [15]?
Its value is “completely blocked”.

What about the “change of TE50 with preincubation time” value ([16]; Jurkat T-cell lysate, 10, 30 and 60 minutes) of the same molecule?
The value was “time-dependent decreases”.

And the “potency compared with the corresponding diastereomers (5c and 5d)” value ([16]; TE50 and pSTAT pIC50)?
Its value is “substantially more potent”.

What about the “induction of interferon-stimulated genes (OAS1, MX1, IFIT1, CCL2)” value [17] of the same molecule?
Its value is “blocked the induction”.

And the “effect on constitutive JAK1 phosphorylation” value [18]?
Its value is “did not affect”.

And the “blockade of JAK1 phosphorylation (maximal activity)” value ([19]; 0.05 µM)?
The value was > 90%.

What about the “effect on constitutive JAK1 phosphorylation” value ([19]; 2 µM, 2 h) of the same molecule?
The value was “completely blocked”.

What about the “effect on catalytic activity of recombinant purified JAK1” value ([20]; peptide substrate assay) of the same molecule?
The value was “did not inhibit”.

What about the IC50 ([20]; read-out: IC50, JAK1 substrate assay, 30 min preincubation, IRS-1 peptide, ATP 50 µM, 1 h) of the same molecule?
The IC50 was > 50 µM.

What about the “effect on IL-12-STAT4 signaling” value [21] of the same molecule?
Its value is “sparing”.

What about the “competition of probe 6 reactivity with WT-TYK2” value [22] of the same molecule?
The value was “blocked probe 6 reactivity”.

And the “effect on GM-CSF-STAT5 signaling” value [23]?
Its value is “sparing”.

What about the “%Engagement” value ([24]; 0.01 µM) of the same molecule?
Its value is 9%.

What about the “Engagement Ratio (DMSO/VVD-118313)” value ([24]; 0.01 µM) of the same molecule?
Its value is 1.1.

And the “Engagement Ratio (DMSO/VVD-118313)” value ([24]; 0.1 µM)?
Its value is 5.4.

What about the “%Engagement” value ([24]; 1 µM) of the same molecule?
Its value is 92%.

What about the “Engagement Ratio (DMSO/VVD-118313)” value ([24]; 1 µM) of the same molecule?
Its value is 12.5.

And the “%Engagement” value ([24]; 10 µM)?
Its value is 95%.

And the “Engagement Ratio (DMSO/VVD-118313)” value ([24]; 10 µM)?
The value was 18.2.
